{
  "source": "patent US11707431B2",
  "about": "“Dental strips for the delivery of specifically targeted antimicrobial peptides” (C3 Jian, LLC, priority 2017, dated 2023)",
  "key": {"S. mutans": {"test_system": "S. mutans", "settings": "Streptococcus mutans"}, "[1]": {"settings": "cited from earlier work"}, "MRSA": {"test_system": "MRSA", "experiment": "MIC against MRSA", "assay_type": "cell-based"}},
  "note": "No end group written: not given here.",
  "data": [
    {"compound": "TFFRLFNRSQTQALGK [F10 to Q10_C16G2]", "values": [
      {"measurement": "% viability remaining", "setting": "S. mutans", "result": 73, "unit": "%"}
    ]},
    {"compound": "TQFRLQNRSQTQALGK [F7/11/15 sub Q_C16G2]", "values": [
      {"measurement": "% viability remaining", "setting": "S. mutans", "result": 93, "unit": "%"}
    ]},
    {"compound": "TFFRLFNRSLTQALGK [F10-L10_C16G2]", "values": [
      {"measurement": "% viability remaining", "setting": "S. mutans", "result": 30, "unit": "%"}
    ]},
    {"compound": "TWFRLFNRSFTQALGK [F2-W2_C16G2]", "values": [
      {"measurement": "% viability remaining", "setting": "S. mutans", "result": 45, "unit": "%"}
    ]},
    {"compound": "OC[C@@H](O)[C@H](O)[C@@H](O)CO", "note": "[Xylitol]", "values": [
      {"measurement": "reduce cavities", "setting": "[1]; in vivo", "result": "up to 80%"},
      {"measurement": "long-term reduction in caries", "setting": "[1]; long-term", "result": "88-93%"}
    ]},
    {"compound": "NYAVVSHT [PF-209]", "values": [
      {"measurement": "MIC", "setting": "MRSA", "result": "MRSA, 50 μM"}
    ]},
    {"compound": "TLFRLLNRSLTQALGK [F2F6F10-L2L6L10_C16G2]", "values": [
      {"measurement": "% viability remaining", "setting": "S. mutans", "result": 26, "unit": "%"}
    ]},
    {"compound": "FESKILNASKELDKEKKVNTALSFNSHQDFAKAYQNGKI [PF-606]", "values": [
      {"measurement": "MIC", "setting": "MRSA", "result": "MRSA, 50 μM"}
    ]},
    {"compound": "GSVIKKRRKRMAKKKHRKLLKKTRIQRRRAGK [PF-527]", "values": [
      {"measurement": "MIC", "setting": "MRSA", "result": "MRSA, 50 μM"}
    ]},
    {"compound": "KFQGEFTNIGQSYIVSASHMSTSLNTGK [PF-583]", "values": [
      {"measurement": "MIC", "setting": "MRSA", "result": "MRSA, 50 μM"}
    ]},
    {"compound": "MRFGSLALVAYDSAIKHSWPRPSSVRRLRM [PF-672]", "values": [
      {"measurement": "MIC", "setting": "MRSA", "result": "MRSA, 1.56 μM"}
    ]},
    {"compound": "TFFRLFNRSFTQALAK [G15-A15_C16G2]", "values": [
      {"measurement": "% viability remaining", "setting": "S. mutans", "result": 47, "unit": "%"}
    ]},
    {"compound": "RESKLIAMADMIRRRI [PF-545]", "values": [
      {"measurement": "MIC", "setting": "MRSA", "result": "MRSA, 50 μM"}
    ]},
    {"compound": "FIRKFLQKLHL [K-16]", "values": [
      {"measurement": "MIC", "setting": "MRSA", "result": "MRSA, 25 μM"}
    ]},
    {"compound": "TFFRLFNRSFTQALDK [G15-D15_C16G2]", "values": [
      {"measurement": "% viability remaining", "setting": "S. mutans", "result": 47, "unit": "%"}
    ]},
    {"compound": "TFFRLFNRSFTQALFK [G15-F15_C16G2]", "values": [
      {"measurement": "% viability remaining", "setting": "S. mutans", "result": 29, "unit": "%"}
    ]},
    {"compound": "TAFRLANRSATQALGK [F2/6/10-A2/6/10_C16G2]", "values": [
      {"measurement": "% viability remaining", "setting": "S. mutans", "result": 78, "unit": "%"}
    ]},
    {"compound": "TQFRLFNRSFTQALGK [F2 to Q2_C16G2]", "values": [
      {"measurement": "% viability remaining", "setting": "S. mutans", "result": 47, "unit": "%"}
    ]},
    {"compound": "TFFRLQNRSFTQALGK [F6 to Q6_C16G2]", "values": [
      {"measurement": "% viability remaining", "setting": "S. mutans", "result": 79, "unit": "%"}
    ]},
    {"compound": "TLFRLFNRSFTQALGK [F2-L2_C16G2]", "values": [
      {"measurement": "% viability remaining", "setting": "S. mutans", "result": 63, "unit": "%"}
    ]},
    {"compound": "MGIIAGIIKFIKGLIEKFTGK [PF-006]", "values": [
      {"measurement": "MIC", "setting": "MRSA", "result": "MRSA, 50 μM"}
    ]},
    {"compound": "VLPFPAIPLSRRRACVAAPRPRSRQRAS [PF-168]", "values": [
      {"measurement": "MIC", "setting": "MRSA", "result": "MRSA, 50 μM"}
    ]},
    {"compound": "TFFRLLNRSFTQALGK [F6-L6_C16G2]", "values": [
      {"measurement": "% viability remaining", "setting": "S. mutans", "result": 43, "unit": "%"}
    ]}
  ]
}
